Experimental findings from a melting point compilation (Tetko et al.) are described below.

Each structure is given as a SMILES string.

On to `COC(=O)C1Nc2ccccc2S(=O)(=O)N1` (stereo not drawn), for which the melting point fell in the range of 171 to 173 °C.
Under `C=CC(=O)Nc1ccc(OC)cc1[N+](=O)[O-]` stands 124 to 126 °C; under `CCOC(=O)Nc1ccc(NC(C)c2ccccn2)cc1` (stereo not drawn), 145 to 147 °C.
Under `CCC(CO)N1CCNCC1` (stereo not drawn) stands 78 to 80 °C.
Turning to `O=C(O)CNC(=O)Cn1cncn1`, the melting point fell in the range of 206 to 208 °C.
Under `NCc1noc(-c2cccs2)n1` stands 146 to 148 °C; under `Cc1cccc(I)c1C(=O)O`, 116 to 118 °C; under `Nc1nnnn1-c1ccccc1`, 159 to 161 °C.
`CCOc1cc(C(N)=NO)cc(Br)c1O` gave a melting point of 157 to 159 °C.
Under `C=CS(=O)(=O)Oc1ccccc1` stands 39 to 42 °C; under `COC(=O)c1ccc(NC(C)=O)c(C)c1`, 132 to 134 °C.
Under `O=C(O)c1cc(-c2cccnc2)nc2ccccc12` stands 323 to 325 °C; under `Cc1cc(Cl)ccc1OC(C(=O)O)c1ccccc1` (stereo not drawn), 122 to 124 °C.
The result for `CC(C)(C)CNC(N)=O` reads 148 to 150 °C; that for `CCNC(=O)Nc1cc(F)ccc1N`, 147 to 149 °C.
`ClCc1csc(-c2ccccn2)n1` yielded a melting point of 85 to 87 °C.
Under `O=C(O)c1ccc(COc2cccc(Br)c2)o1` stands 171 to 173 °C; under `CC(=O)c1ccc(CC(=O)O)cc1`, 109 to 111 °C; under `COc1ccc(C=O)cc1OCC1CC1`, 68 to 70 °C.
With `O=C(O)C1C2CCCCC21` (stereo not drawn), the melting point lay in the range of 86 to 88 °C.
As to `COC1CCN(C(=O)Nc2cccc(C(C)=O)c2)CC1`, the melting point lay within 104 to 106 °C.
Under `COc1ccccc1C(N)=S` stands 113 to 115 °C.
Under `Nc1ccc(Sc2ccc(C(F)(F)F)cc2)cc1` stands 93 to 95 °C.
Under `O=C(O)CCc1ccc(-c2ccccc2F)o1` stands 117 to 119 °C; under `CCOC(=O)c1ccc(S(N)(=O)=O)nc1`, 114 to 116 °C; under `O=C(O)c1cc(-c2ccccc2)nc2nc(N3CCCCC3)sc12`, 347 to 349 °C.
For the compound `CCOCCS(=O)(=O)NCC(=O)O`, the melting point is 63 to 65 °C.
Consider `O=C1NC(=O)C2(CCCc3sccc32)N1` (stereo not drawn), for which the melting point was 267 to 269 °C.
For the compound `COC(=O)C(=O)CC(=O)c1ccc(OC)cc1OC`, the melting point was 101 to 103 °C.
The result for `Fc1c(Cl)ccc2c(Cl)ccnc12` reads 129 to 131 °C; that for `O=c1[nH]c(CO)nc2ccccc12`, 221 to 223 °C; that for `CCNC(=O)c1ccccc1N`, 93 to 95 °C.
As to `Cn1ncnc1COc1ccc(S(N)(=O)=O)cc1`, the melting point was 176 to 178 °C.
`Cc1c(NC(=O)C(C)Sc2nnc(N)s2)c(=O)n(-c2ccccc2)n1C` (stereo not drawn) yielded a melting point of 143 to 147 °C.
The result for `CC1CC(=O)c2cccc(Br)c21` (stereo not drawn) reads 45 to 47 °C; that for `Cn1cc(N2CCNCC2=O)cn1`, 123 to 125 °C; that for `NS(=O)(=O)c1ccc(SCC(=O)O)cc1`, 157 to 159 °C.
The result for `CCn1c(=O)n(CCC(=O)O)c2ccccc21` reads 179 to 181 °C; that for `COCCNc1nc(Cl)nc(Cl)n1`, 71 to 73 °C.
For the compound `CCCNC(=O)c1ccccc1N`, the melting point lay within 206 to 208 °C.
The result for `O=C(O)C1(c2cccs2)CCCCC1` reads 146 to 148 °C.
The compound `O=C(O)C1CC1c1cccc(F)c1` (stereo not drawn) had a melting point of 78 to 80 °C.
Under `CC1CCCCC1(NC(=O)OC(C)(C)C)C(=O)O` (stereo not drawn) stands 174 to 176 °C.
The result for `Cc1oc(C(=O)O)cc1COc1ccccc1` reads 139 to 141 °C; that for `NC(=O)N1CCC(=O)CC1`, 137 to 139 °C.
`Nc1cc(N2CCCC2=O)ccc1Cl` came in with a melting point of 139 to 141 °C.
Take `CCOC(=O)c1ccn(-c2cccc(N)c2)n1`: the melting point lay in the range of 97 to 99 °C.
`Cc1cc(Cl)c2cc(OC(F)F)ccc2n1`: the melting point is 81 to 83 °C.
For the compound `COc1ccc(C#N)c(N)c1`, the melting point was 91 to 93 °C.
Under `O=C(O)c1sc2ccccc2c1CSc1ccccc1Cl` stands 183 to 185 °C; under `NC(COc1ccc(Cl)cc1Cl)=NO`, 141 to 144 °C.
Under `ClCc1cc2ccccc2s1` stands 49 to 51 °C; under `O=S1(=O)CCCC(O)C1` (stereo not drawn), 99 to 101 °C; under `C=CC(=O)NCc1cnc(C)s1`, 111 to 113 °C.
The result for `NC1CCN(c2ccccc2)C1=O` (stereo not drawn) reads 66 to 68 °C.
Take `Cc1nn(C)c(-n2cncn2)c1N`: the melting point lay within 96 to 98 °C.
`COc1cc(C)nc(Cl)n1` returned a melting point of 35 to 37 °C.
Under `O=S1(=O)CCC(Cl)CC1` stands 129 to 131 °C.
`S=c1[nH][nH]c(=NCCc2cccs2)s1` showed a melting point of 82 to 84 °C.
Under `O=C(O)c1cc(Br)nn1-c1ccc(F)cc1` stands 177 to 179 °C; under `O=C(O)c1cc(-c2cccs2)nc2onc(C3CC3)c12`, 236 to 238 °C; under `Cc1ccc(S(N)(=O)=O)cc1N`, 176 to 178 °C.
The result for `COc1nnc(Cl)c2ccccc12` reads 99 to 101 °C; that for `CC(=O)Nc1ncccc1N`, 135 to 137 °C.
As to `O=C(O)CN1C(=O)CCCc2sccc21`, the melting point fell in the range of 138 to 140 °C.
Compound `O=C(O)c1cc(S(=O)(=O)N2CCCC2)ccc1Cl` registered a melting point of 194 to 196 °C.
The result for `CCc1ccc(CC)c(-c2csc(N)n2)c1` reads 66 to 68 °C.
With `Clc1cc(SCc2ccccc2)ccn1`, the melting point lay within 61 to 63 °C.
Under `O=C(O)Cc1cn(-c2ccccc2)nc1-c1ccc(Br)cc1` stands 135 to 137 °C; under `O=C(Cc1ccccc1)C[N+](=O)[O-]`, 48 to 50 °C.
The result for `CS(=O)(=O)Nc1cc(C(=O)O)ccc1F` reads 250 to 252 °C.
The result for `Cc1cccc(C2(C(=O)O)CC2)c1` reads 107 to 109 °C; that for `O=S(=O)(F)Cc1ccc(Cl)nc1`, 81 to 83 °C.
Take `N#Cc1cc(C2CC2)ccn1`: the melting point lay in the range of 60 to 62 °C.
The result for `CCOc1ccc(-c2nn(-c3ccccc3)cc2C=O)cc1Cl` reads 100 to 102 °C; that for `CCOC(=O)c1ccncc1N`, 173 to 175 °C; that for `CN(C(=O)CCl)C1(c2ccccc2Cl)CCCCC1=O` (stereo not drawn), 110 to 112 °C.
Under `CC(=O)c1ccc(-n2c(C)c[nH]c2=O)cc1` stands 203 to 205 °C; under `O=C1C=CC(=O)N1CCCN1CCOCC1`, 39 to 41 °C; under `C=CCc1cc(C=O)cc(OC)c1O`, 80 to 82 °C.
Under `Sc1nnc(-c2ccc3c(c2)OCO3)o1` stands 179 to 181 °C; under `Nc1cncc(Br)c1Cl`, 96 to 98 °C.
Turning to `NCc1ccc(N2CCSCC2)cc1`, the melting point was 50 to 52 °C.
The result for `N#Cc1ccnc(Cl)c1[N+](=O)[O-]` reads 74 to 76 °C; that for `Cc1nn(-c2ccccc2)c(C)c1NC(=O)CCl`, 149 to 151 °C; that for `O=c1[nH]c(CCl)nc2scc(-c3ccco3)c12`, 230 to 232 °C.
With `CCOc1ccccc1OCCC(=O)O`, the melting point is 97 to 99 °C.
`Cc1sc2nc(CCl)[nH]c(=O)c2c1-c1ccccc1` gave a melting point of 259 to 261 °C.
As for `CC(C)(C)Cc1noc2ncc(C(=O)O)cc12`, the melting point lay in the range of 231 to 233 °C.
`Nn1cnc2ccccc21` came in with a melting point of 147 to 149 °C.
Under `COc1ccccc1NC(=O)C(Br)C(C)C` (stereo not drawn) stands 107 to 109 °C; under `Nc1ccc(S)c(Br)c1`, 94 to 96 °C; under `CC(NC(=O)c1cccs1)C(=O)O` (stereo not drawn), 163 to 165 °C.
The result for `O=C(O)CCCNc1ncccn1` reads 127 to 129 °C; that for `O=C(O)CSCc1ccc(Cl)c(Cl)c1`, 67 to 69 °C.
Under `O=[N+]([O-])c1ccc(Oc2ccc([N+](=O)[O-])cc2)cc1` stands 144 to 146 °C.
In the case of `Nc1ccc(OCC(F)(F)F)c(C(=O)O)c1`, the melting point lay within 190 to 192 °C.
`O=c1c(Cl)c(Cl)cnn1-c1ccc(C(F)(F)F)cn1` registered a melting point of 111 to 115 °C.
As to `OCc1cnc(-c2ccco2)o1`, the melting point lay within 99 to 101 °C.
With `O=C(NCCO)c1ccc([N+](=O)[O-])cc1Cl`, the melting point lay within 173 to 175 °C.
Under `COC(=O)c1cc([N+](=O)[O-])c(Br)cc1F` stands 72 to 74 °C.
Under `CC(C)C(C(=O)O)N1CCCS1(=O)=O` (stereo not drawn) stands 97 to 99 °C; under `O=C1CC2(CCCC2)Oc2ccccc21`, 35 to 37 °C.
`Cc1cc(=O)[nH]c2c1cnn2C1CCCC1` had a melting point of 259 to 261 °C.
The result for `N#Cc1c(NC(=O)CCl)oc(-c2ccccc2)c1-c1ccccc1` reads 155 to 157 °C; that for `COc1cc(C(=O)O)ccc1OC1CCCC1`, 153 to 155 °C.
In turn, `NS(=O)(=O)c1ccc(NC(=O)CCl)cc1` returned a melting point of 156 to 158 °C.
`C1=C(c2c[nH]c3ncccc23)CCNC1` displayed a melting point of 181 to 183 °C.
Under `CC(N)c1ccc(NC(N)=O)cc1` (stereo not drawn) stands 132 to 134 °C.
As for `Cc1c(Cl)cccc1Nc1nnc(S)s1`, the melting point lay within 189 to 191 °C.
Under `Cc1ccc(F)c(N)c1C(=O)O` stands 114 to 116 °C; under `Cc1cc2ccn(C)c2c(=O)[nH]1`, 189 to 191 °C; under `C(=C\c1ccncc1)/c1ccccc1`, 128 to 130 °C.
The result for `CC(=O)c1cccc(NC(=O)C(C)Cl)c1` (stereo not drawn) reads 111 to 113 °C; that for `Cn1c(=O)oc2c(C(=O)O)cccc21`, 309 to 311 °C.
`CN(C)S(=O)(=O)c1ccc2c(c1)NCCC2`: the melting point lay within 130 to 132 °C.
Under `O=[N+]([O-])c1ccc(N2CCNCC2)cn1` stands 147 to 149 °C; under `O=S(=O)(c1ccc2c(c1)CCCC2)N1CCNCC1`, 110 to 112 °C; under `Cc1ccc2c(c1)OC(C)C(=O)N2` (stereo not drawn), 154 to 156 °C.
`O=C(O)/C=C/c1ccc2c(c1)OCCO2` gave a melting point of 165 to 169 °C.
The result for `CC(C)(C)C(=O)Nc1cn[nH]c1` reads 200 to 202 °C; that for `CCn1cc(N2C(=O)C=CC2=O)cn1`, 92 to 94 °C.
The result for `CN(C)c1ncnc2nc[nH]c12` reads 256 to 258 °C.

In general, melting point refers to the temperature, or range, at which the solid turns liquid.
